Experimental data from US20150250166A1, “NOOTKATONE AS AN INSECTICIDE AND INSECT REPELLENT” (ALLYLIX, INC., priority 2012, published 2015).

Assays:
Assay type in all cases: in vivo
[1] = system: adult cat fleas (Ctenocephalides felis); test: Cat flea repellency, treated versus untreated paper towel halves in payliner; details: for Percent Repellency (corrected for isopropanol control) / cat fleas on 10% Nootkatone-treated paper towel, average count of five trials (of 10): 10% nootkatone, 0.1% BHT in isopropanol
Experimental: A formulation, containing 10% nootkatone, 0.1% butylated hydroxytoluene (BHT) in isopropanol was tested for efficacy for repelling adult cat fleas (Ctenocephalides felis). Equal amounts of 10% nootkatone solution, stored at ambient temperature and humidity, were applied to five semi-circular pieces of paper towels, arranged so that they were evenly spaced on a sheet of aluminum foil, until sufficiently wet to the touch. Five untreated semi-circular pieces were marked with the letter “c”, for control, on both sides in pencil or solvent resistant ink. Each of the semi-circular pieces of paper towel had the diameter of a 5-gallon payliner. Immediately after spraying the paper towels with the nootkatone solution, the treated towels were placed in 5 5-gallon payliners. The untreated semi-circular paper towels were also placed in the payliners, with the flat sides of the semi-circle side-by-side with those of the treated pieces, so that the bottoms of the payliners were completely covered with paper towel, half treated and half untreated. Five additional payliners with one semi-circular paper towel treated with isopropyl alcohol and the other untreated served as controls. A 9 dram vial, containing 10 cat fleas (El Labs Inc (Soquel, Calif.)) was emptied onto each of the untreated paper towels in the payliners (total of 10 payliners). The distribution of the cat fleas on the control vs. treated paper towels was recorded at 0.5, 1, 1.5, 2, and 24 hours. Observations were made quietly to minimize the disturbance to the fleas by the observer. The containers were kept at ambient temperature and humidity for the duration of the study. The repellency was calculated from the following equation: R=[(C−T)/C]*100, where R is the % repellency, C is the fraction of fleas on the isopropanol-treated paper towel pieces, and T is the fraction of fleas on the nootkatone-treated paper towel pieces.

[2] = system: adult cat fleas (Ctenocephalides felis); details: 10% nootkatone in isopropanol, direct spray; 24 hours
Experimental: A direct spray formulation, containing 10% nootkatone, 0.1% butylated hydroxytoluene (BHT) in isopropanol, stored at ambient temperature and humidity, was tested for efficacy for knockdown and mortality among adult cat fleas (Ctenocephalides felis). Five replicates of 10 adult cat fleas (El Labs Inc (Soquel, Calif.)) were emptied from 9 dram vials into 5 gallon HDPE Payliner® pail liners lined with paper towels. Each replicate was sprayed manually with 1 gram±0.1 grams of the 10% nootkatone formulation from the rim of the pail liner. The spray bottle was weighed before and after treating each replicate to confirm the weight of the test sample dispensed. Five control replicates of 10 adult cat fleas were treated with isopropyl alcohol, following the same protocol. The study provided a single treatment of 10% nootkatone formulation or isopropyl alcohol. All spraying took place in a vented, stainless steel Peet Grady chamber (6×6×6 ft).
Following the knockdown studies, the payliners containing cat fleas were kept at ambient temperature and humidity in the laboratory. Mortality of cat fleas following isopropanol (control) and 10% nootkatone treatments was then recorded 24 hours after solution administration. Dead fleas were confirmed by probing the fleas or exhaling into the payliner to ensure lack of movement. […] Cat fleas that were able to jump were recorded as being alive. The number of moribund and dead fleas per replicate were added together for a total mortality count and divided by the number of fleas tested to derive percent mortality.

[3] = system: adult bed bugs (Cimex lectularius); test: Direct spray mortality of adult bed bugs; details: for bed bug mortality, in words: within the 15 minute knockdown study; for Alive, Treatment (bed bug count, of 50) / Dead, Treatment (bed bug count, of 50) / Moribund, Treatment (bed bug count, of 50): 5% nootkatone, 0.1% BHT in acetone
Experimental: A direct spray formulation, containing 10% nootkatone (from Bedoukian Research, Inc., Product No. 800; Danbury, Conn.), 0.1% butylated hydroxytoluene (BHT) in isopropanol, stored at ambient temperature and humidity, was tested for efficacy for knockdown and mortality among adult bed bugs (Cimex lectularius). Adult bed bugs (ICR, Baltimore, Md.) used in this study were blood fed within 7 days of testing. The bed bugs were anesthetized with CO2 and five groups of ten bed bugs were transferred into 9 dram vials at least 2 hours prior to testing. Just prior to treatment, the bed bugs were transferred to 16 oz. paper solo cups with cloth glued to the bottom on the inside of the cup and a screened lid. Each replicate was then sprayed manually, using a 2-3 oz. pump sprayer, with 1 gram±0.1 grams of the 10% nootkatone formulation. Each replicate was sprayed separately from a vertical distance of 6 inches above the bed bugs. The spray bottle was weighed before and after treating each replicate to confirm the weight of the test sample dispensed. All spraying took place in a vented, stainless steel Peet Grady chamber (6×6×6 ft). […] Knockdown was defined as the inability of a bed bug to right itself when placed on its back. After the five minute time point, the bed bugs were transferred to recovery containers that hold 16 oz. paper solo cups equipped with screened lids. A further knockdown study took place at 15 minutes post treatment. Serving as control samples, five replicates of 10 adult bed bugs were treated with isopropyl alcohol alone and five replicates of 10 adult bed bugs were treated with water, following the protocol outlined above.
After the knockdown counts were complete, the bed bugs were maintained in treatment chambers, in the laboratory at ambient light, temperature, and humidity conditions. Mortality counts were made at 24 and 48 hours post treatment. […] Table 4 below provides the average mortality data for the five replicates of bed bugs treated with water, isopropanol alone, or with 10% nootkatone in isopropanol at 24 and 48 hours.
A direct spray formulation, containing 5% nootkatone (from Bedoukian Research, Inc., Product No. 800; Danbury, Conn.), 0.1% butylated hydroxytoluene (BHT) in acetone, stored at ambient temperature and humidity, was tested for efficacy for knockdown and mortality among adult bed bugs (Cimex lectularius) using the same procedure as described in Example 1 above. Five replicates of ten bed bugs were sprayed with 1.0 g±20% of a 5% nootkatone in acetone solution stabilized with 0.1% BHT. An additional five replicates were treated with 1.0 g±20% of tap water to serve as a control.
After the knockdown counts were complete, the bed bugs were maintained in treatment chambers, in the laboratory at ambient light, temperature, and humidity conditions. Mortality counts were made at 1, 2, 3, 4 and 5 days post treatment. […] Table 5 below provides the mortality data for the replicates of bed bugs treated with water (control) or with 5% nootkatone in acetone.

[4] = time 1 (head: Minutes; text: days post treatment)
[5] = time 2 (head: Minutes; text: days post treatment)
[6] = time 3 (head: Minutes; text: days post treatment)
[7] = time 4 (head: Minutes; text: days post treatment)
[8] = time 5 (head: Minutes; text: days post treatment)
[9] = 10% nootkatone in isopropanol, 24 hr post treatment
[10] = 10% nootkatone in isopropanol, 48 hr post treatment

SMILES: C=C(C)[C@@H]1CCC2=CC(=O)C[C@@H](C)[C@]2(C)C1 [nootkatone, 4,4a,5,6,7,8-hexahydro-6-isopropenyl-4,4a-dimethyl-2(3H)-naphtalenone]
- cat flea repellency, in words ([1]; 10% nootkatone in isopropyl alcohol): does not repel cat fleas
- Percent Repellency (corrected for isopropanol control) ([1]; 0.5 hr): −40.0%
- cat fleas on 10% Nootkatone-treated paper towel, average count of five trials (of 10) ([1]; 0.5 hr): 5.6
- Percent Repellency (corrected for isopropanol control) ([1]; 1 hr): 9.5%
- cat fleas on 10% Nootkatone-treated paper towel, average count of five trials (of 10) ([1]; 1 hr): 3.8
- Percent Repellency (corrected for isopropanol control) ([1]; 1.5 hr): 9.5%
- cat fleas on 10% Nootkatone-treated paper towel, average count of five trials (of 10) ([1]; 1.5 hr): 3.8
- Percent Repellency (corrected for isopropanol control) ([1]; 2 hr): 20.0%
- cat fleas on 10% Nootkatone-treated paper towel, average count of five trials (of 10) ([1]; 2 hr): 3.2
- Percent Repellency (corrected for isopropanol control) ([1]; 24 hr): 38.9%
- cat fleas on 10% Nootkatone-treated paper towel, average count of five trials (of 10) ([1]; 24 hr): 2.2
- Alive, average cat flea count of 5 trials (of 10) [2]: 0
- Dead, average cat flea count of 5 trials (of 10) [2]: 9.6
- Moribund, average cat flea count of 5 trials (of 10) [2]: 0.4
- Mortality (moribund plus dead) of cat fleas [2]: 100%
- bed bug mortality compared with control, in words ([3]; 5% nootkatone in acetone, 5 days): did not kill bed bugs after 5 days above mortality levels observed for the control
- bed bug mortality, in words ([3]; 5% nootkatone in acetone): No mortality was observed
- Alive, Treatment (bed bug count, of 50) [3, 4]: 50
- Dead, Treatment (bed bug count, of 50) [3, 4]: 0
- Moribund, Treatment (bed bug count, of 50) [3, 4]: 0
- Alive, Treatment (bed bug count, of 50) [3, 5]: 49
- Dead, Treatment (bed bug count, of 50) [3, 5]: 1
- Moribund, Treatment (bed bug count, of 50) [3, 5]: 0
- Alive, Treatment (bed bug count, of 50) [3, 6]: 48
- Dead, Treatment (bed bug count, of 50) [3, 6]: 1
- Moribund, Treatment (bed bug count, of 50) [3, 6]: 1
- Alive, Treatment (bed bug count, of 50) [3, 7]: 45
- Dead, Treatment (bed bug count, of 50) [3, 7]: 2
- Moribund, Treatment (bed bug count, of 50) [3, 7]: 3
- Alive, Treatment (bed bug count, of 50) [3, 8]: 42
- Dead, Treatment (bed bug count, of 50) [3, 8]: 5
- Moribund, Treatment (bed bug count, of 50) [3, 8]: 3
- bed bug mortality compared with isopropanol alone, in words ([3]; 10% nootkatone in isopropanol, 24 or 48 hours): did not kill bed bugs after 24 or 48 hours above mortality levels observed for isopropanol alone
- Alive, average bed bug count of 5 trials (of 10) [3, 9]: 6.4
- Dead, average bed bug count of 5 trials (of 10) [3, 9]: 3.6
- Moribund, average bed bug count of 5 trials (of 10) [3, 9]: 0
- Alive, average bed bug count of 5 trials (of 10) [3, 10]: 5.2
- Dead, average bed bug count of 5 trials (of 10) [3, 10]: 4.8
- Moribund, average bed bug count of 5 trials (of 10) [3, 10]: 0
- bed bug mortality, in words ([3]; 10% nootkatone in isopropanol): No mortality was observed
